In patent US11672868B2, “Bicyclic peptide ligands specific for MT1-MMP” (priority 2014, dated 2023):
Numbered stars: 1 amine (or outer) side, 2 acyl side, 3 side chain; on linkers, the order of the positions; unused ones are H or OH. Bridge positions count the residues as written; N and C are the ends. Square brackets hold non-standard residues; d marks the D form. Peptide text beside a SMILES is read from it. * marks the point of attachment. 5FAM = O=C1OC2(c3ccc(O)cc3Oc3cc(O)ccc32)c2ccc(C(=O)*)cc21; 1Nal = N[C@@H](Cc1cccc2ccccc12)C(=O)O; TBMB = c1c(C[*:1])cc(C[*:3])cc1C[*:2]; Tle = CC(C)(C)[C@H](N)C(=O)O; βAla = NCCC(=O)O; Sar = CNCC(=O)O

Experiments:
Assay in all cases: FP selectivity against related metalloproteinases
Assay type in all cases: binding
Settings in all cases: Table 14
MMP-1 = biological target: T1, MMP-1 (Homo sapiens, UniProt P03956)
T1 sequence (P03956 100-469): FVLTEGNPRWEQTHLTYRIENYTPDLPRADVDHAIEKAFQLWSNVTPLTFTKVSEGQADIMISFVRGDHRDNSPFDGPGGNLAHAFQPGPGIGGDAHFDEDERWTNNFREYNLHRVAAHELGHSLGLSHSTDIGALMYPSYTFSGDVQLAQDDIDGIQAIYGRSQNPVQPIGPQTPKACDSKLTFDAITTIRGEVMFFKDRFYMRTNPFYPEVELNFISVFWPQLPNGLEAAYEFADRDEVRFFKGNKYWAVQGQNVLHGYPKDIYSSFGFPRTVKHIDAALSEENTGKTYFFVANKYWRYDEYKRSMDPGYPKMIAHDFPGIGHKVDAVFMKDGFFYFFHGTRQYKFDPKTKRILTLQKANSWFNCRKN
Method: (§1) The N-terminally fluoresceinated derivative of 17-69-07-N241 (termed 17-69-07-N258, of the sequence: Fluorescein-(bAla)-Sar10-A-(17-69-07) D-Ala1 1Nal4 D-Ala5 tBuGly11) was tested against related human metalloproteinases.

MMP-15 = MMP-15 (Homo sapiens, UniProt P51511)
Chain of MMP-15 (P51511 132-669): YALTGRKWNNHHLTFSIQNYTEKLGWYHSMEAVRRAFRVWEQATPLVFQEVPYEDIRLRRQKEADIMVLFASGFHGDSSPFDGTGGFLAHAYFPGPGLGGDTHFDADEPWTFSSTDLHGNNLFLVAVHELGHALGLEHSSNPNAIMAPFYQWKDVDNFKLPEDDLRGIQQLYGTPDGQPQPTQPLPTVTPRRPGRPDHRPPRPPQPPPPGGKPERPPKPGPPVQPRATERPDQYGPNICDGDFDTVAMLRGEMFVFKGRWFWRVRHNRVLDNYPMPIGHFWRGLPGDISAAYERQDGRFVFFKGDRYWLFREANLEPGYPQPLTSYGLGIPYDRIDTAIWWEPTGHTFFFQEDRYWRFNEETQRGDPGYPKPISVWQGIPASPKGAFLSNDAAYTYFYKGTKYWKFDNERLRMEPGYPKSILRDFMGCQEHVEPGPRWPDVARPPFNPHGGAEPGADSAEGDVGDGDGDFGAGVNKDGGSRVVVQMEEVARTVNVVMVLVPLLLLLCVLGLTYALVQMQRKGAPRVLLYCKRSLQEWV
Method: as §1

MMP-16 = MMP-16 (Homo sapiens, UniProt P51512)
Chain of MMP-16 (P51512 120-607): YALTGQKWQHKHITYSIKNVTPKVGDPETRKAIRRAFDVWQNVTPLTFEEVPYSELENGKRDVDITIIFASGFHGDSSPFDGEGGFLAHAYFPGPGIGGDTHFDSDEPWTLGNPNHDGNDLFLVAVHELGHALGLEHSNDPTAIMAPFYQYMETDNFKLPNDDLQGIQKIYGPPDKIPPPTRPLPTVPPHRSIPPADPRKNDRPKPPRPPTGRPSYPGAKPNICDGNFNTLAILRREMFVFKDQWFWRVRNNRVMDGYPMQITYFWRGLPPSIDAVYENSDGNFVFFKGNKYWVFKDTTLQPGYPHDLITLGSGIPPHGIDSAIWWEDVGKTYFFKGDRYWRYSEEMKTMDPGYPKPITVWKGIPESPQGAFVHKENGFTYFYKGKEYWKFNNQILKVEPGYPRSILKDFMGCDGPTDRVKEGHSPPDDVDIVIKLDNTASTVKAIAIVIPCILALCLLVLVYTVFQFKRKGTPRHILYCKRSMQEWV
Method: as §1

MMP-2 = biological target: T2, MMP-2 (Homo sapiens, UniProt P08253)
T2 sequence (P08253 110-660): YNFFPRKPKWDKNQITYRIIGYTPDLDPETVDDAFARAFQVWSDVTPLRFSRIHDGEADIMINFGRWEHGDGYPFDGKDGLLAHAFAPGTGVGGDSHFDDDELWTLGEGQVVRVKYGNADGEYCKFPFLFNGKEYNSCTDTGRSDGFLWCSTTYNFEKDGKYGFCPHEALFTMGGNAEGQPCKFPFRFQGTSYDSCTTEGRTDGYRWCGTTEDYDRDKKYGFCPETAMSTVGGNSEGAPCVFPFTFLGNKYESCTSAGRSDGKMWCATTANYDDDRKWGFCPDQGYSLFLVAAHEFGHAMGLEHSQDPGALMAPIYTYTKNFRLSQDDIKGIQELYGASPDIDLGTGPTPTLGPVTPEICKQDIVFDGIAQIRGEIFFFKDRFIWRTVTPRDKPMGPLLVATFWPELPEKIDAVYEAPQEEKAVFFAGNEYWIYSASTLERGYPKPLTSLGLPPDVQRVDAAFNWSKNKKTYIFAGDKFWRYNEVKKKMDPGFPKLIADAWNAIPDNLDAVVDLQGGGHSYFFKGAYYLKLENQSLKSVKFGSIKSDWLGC
Method: as §1

Kd (MMP-1): > 1000 nM | Kd (MMP-15): > 1000 nM | Kd (MMP-16): > 1000 nM | Kd (MMP-2): > 1000 nM
SMILES: C[C@H](NC(=O)CN(C)C(=O)CN(C)C(=O)CN(C)C(=O)CN(C)C(=O)CN(C)C(=O)CN(C)C(=O)CN(C)C(=O)CN(C)C(=O)CN(C)C(=O)CN(C)C(=O)CCNC(=O)c1ccc2c(c1)C(=O)OC21c2ccc(O)cc2Oc2cc(O)ccc21)C(=O)N[C@H]1CSCc2cc3cc(c2)CSC[C@H](NC(=O)[C@@H](C)NC(=O)[C@H](Cc2cccc4ccccc24)NC(=O)[C@H](CCC(=O)O)NC(=O)[C@H](CC(N)=O)NC(=O)[C@@H](C)NC1=O)C(=O)N[C@@H](CCC(=O)O)C(=O)N[C@@H](CC(=O)O)C(=O)N[C@@H](Cc1ccccc1)C(=O)N[C@@H](Cc1ccc(O)cc1)C(=O)N[C@@H](CC(=O)O)C(=O)N[C@@H](C(C)(C)C)C(=O)N[C@H](C(N)=O)CSC3 [17-69-07-N258, Fluorescein-(bAla)-Sar10-A-(17-69-07) D-Ala1 1Nal4 D-Ala5 tBuGly11] ({5FAM-βAla}-[Sar][Sar][Sar][Sar][Sar][Sar][Sar][Sar][Sar][Sar]AC[dA]NE[1Nal][dA]CEDFYD[Tle]C-NH2; linker 12-18-25 via TBMB)
